Measured values reported in US20210061800A1, “COMPOUNDS FOR TREATING EYE DISEASES AND METHODS THEREOF” (Agency for Science, Technology and Research, priority 2017, published 2021).

What was measured:
PDGFR-WT [1] = biological target: T1, PDGFR-WT (Homo sapiens, UniProt P09619); assay: PDGFRβ signaling in HEK293 cells (Western blot: PDGFRβ autophosphorylation, Shp2 phosphorylation); type: cell-based; parameters: expressed in transfected cells; host or cells: HEK293; settings: 20 ng/ml PDGF
Procedure: FIG. 5 illustrates a Western-blot analysis result of Ex 1 (a compound of the present invention), in relation to inhibit PDGFRβ signaling in HEK293 cells expressing PDGFRβ.
Human Embryonic kidney cells (HEK293) were constructed to express human PDGFRWT under the control of constitutive CMV promoter. Cells were grown in the presence of 20 ng/ml PDGF (the ligand for the PDGFRβ) to activate the PDGFRβ. Different concentration of Ex 1 were added to study its effect on the PDGFRβ-mediated signaling. Autophosphorylation of PDGFRβ and Shp2 phosphorylation were monitored by Western blotting were used as the markers for PDGFRβ signaling. B Actin was used as an internal control.
Target sequence in this assay (P09619 33-1106): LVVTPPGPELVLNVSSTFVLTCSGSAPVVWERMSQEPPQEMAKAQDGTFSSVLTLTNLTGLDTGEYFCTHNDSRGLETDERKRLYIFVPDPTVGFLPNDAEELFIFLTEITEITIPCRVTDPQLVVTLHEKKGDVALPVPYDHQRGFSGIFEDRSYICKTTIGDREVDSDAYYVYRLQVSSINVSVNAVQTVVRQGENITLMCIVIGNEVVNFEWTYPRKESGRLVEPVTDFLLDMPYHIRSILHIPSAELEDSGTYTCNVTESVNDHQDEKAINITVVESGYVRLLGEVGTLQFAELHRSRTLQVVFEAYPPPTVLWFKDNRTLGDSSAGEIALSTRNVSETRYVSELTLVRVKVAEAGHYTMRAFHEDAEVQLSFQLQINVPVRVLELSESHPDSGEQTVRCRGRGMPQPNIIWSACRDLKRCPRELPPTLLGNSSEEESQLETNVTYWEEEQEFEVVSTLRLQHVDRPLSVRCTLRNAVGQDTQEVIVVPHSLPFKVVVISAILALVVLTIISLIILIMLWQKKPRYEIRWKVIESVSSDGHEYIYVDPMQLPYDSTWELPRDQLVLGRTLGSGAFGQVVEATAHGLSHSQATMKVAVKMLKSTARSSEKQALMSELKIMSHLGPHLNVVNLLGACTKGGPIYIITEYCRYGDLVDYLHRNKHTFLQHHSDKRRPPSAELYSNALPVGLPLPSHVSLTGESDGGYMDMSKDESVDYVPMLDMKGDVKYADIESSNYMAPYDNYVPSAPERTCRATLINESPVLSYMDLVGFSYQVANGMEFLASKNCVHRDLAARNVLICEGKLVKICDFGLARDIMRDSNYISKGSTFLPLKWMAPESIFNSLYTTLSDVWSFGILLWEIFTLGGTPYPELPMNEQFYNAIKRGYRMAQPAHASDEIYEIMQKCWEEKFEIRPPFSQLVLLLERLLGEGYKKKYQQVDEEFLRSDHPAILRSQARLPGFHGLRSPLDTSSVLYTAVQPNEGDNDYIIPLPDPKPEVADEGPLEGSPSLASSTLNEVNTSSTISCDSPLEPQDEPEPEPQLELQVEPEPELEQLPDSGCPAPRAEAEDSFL

human PDGFRβWT = assay: Humanized yeast screen: prevention of PDGFR-induced death of yeast cells; settings: 10 μM; compared to DMSO or Gleevec
Procedure: A humanized yeast screen was performed. Yeast cells carrying stably integrated GAL-PDGFRβ were first grown in YEP+raff medium and then seeded into fresh YEP+raff+GAL medium to induce expression of human PDGFRβWT.

human PDGFRβ = biological target: T2, human PDGFRβ (Homo sapiens, UniProt P09619); assay: PDGFRβ signaling in Ba/F3 cells (Western blot); type: cell-based; settings: BaF3 cells expressing PDGFRβ, PDGF-induced
T2 construct: expressed in transfected cells; host or cells: Ba/F3
T2 sequence (P09619 33-1106): as above
Procedure: FIG. 7 illustrates a Western-blot analysis result of Ex 2 and Ex 3 (compounds of the present invention) to inhibit PDGFRβ signaling in BaF3 cells expressing PDGFRβ.
Ba/F3 cells were constructed to express human PDGFRβ under the control of CMV promoter. The PDGFRβ signaling was induced by addition of the ligand PDGF. The effect of […] and Ex 3 was added to the cell cultures at different concentrations to determine their efficacy to inhibit the PDGFRβ signaling as reflected by the inhibition of PDGFRβ autophosphorylation and the phosphorylation of Shp2, a downstream effector of the PDGFRβ signal pathway.
FIG. 7 illustrates a Western-blot analysis result, illustrating the efficacy of compounds of the present invention to inhibit PDGFRβ signaling in BaF3 cells expressing PDGFRβ.

[2] = tested on: Choroid membrane preparations; assay: Ex vivo organoid model of angiogenesis (choroid membrane preparations in Matrigel); type: cell-based, mice; settings: mouse choroid in Matrigel
Procedure: Choroid membrane preparations isolated from young mice were cultured in Matrigel. Matrigel containing these preparations were layered with growth medium containing various concentrations of Ex 2 and Ex 3. The ‘blood vessel’ growth was monitored and quantified using a specialized image analysis software.
FIG. 10 illustrates the efficacy of the compounds of the present invention in an ex vivo organoid model of angiogenesis. Compounds of the present invention show anti-angiogenesis in organoid model.

PDGFR-WT [3] = biological target: T1, PDGFR-WT; assay: PDGFRβ-dependent growth of Ba/F3 cells; type: cell-based; settings: inhibition of PDGFRβ-dependent growth of Ba/F3 cells; read-out: effective concentration-50 (EC50) against PDGFR-WT
Procedure: Based on in silico modelling and simulation, different derivatives of the diphenyl oxyacetamide based compounds (formula (I)) were synthesized. The potency of the compounds were measured in terms of its ability to inhibit the PDGFRβ-dependent growth of Ba/F3 cells.
FIG. 6 illustrates work flow for synthesis of G6 derivatives Effective Concentration-50 (EC50) as determined using Ba/F3 cell.
Target sequence in this assay (P09619 554-1106 limits assumed, change not shown): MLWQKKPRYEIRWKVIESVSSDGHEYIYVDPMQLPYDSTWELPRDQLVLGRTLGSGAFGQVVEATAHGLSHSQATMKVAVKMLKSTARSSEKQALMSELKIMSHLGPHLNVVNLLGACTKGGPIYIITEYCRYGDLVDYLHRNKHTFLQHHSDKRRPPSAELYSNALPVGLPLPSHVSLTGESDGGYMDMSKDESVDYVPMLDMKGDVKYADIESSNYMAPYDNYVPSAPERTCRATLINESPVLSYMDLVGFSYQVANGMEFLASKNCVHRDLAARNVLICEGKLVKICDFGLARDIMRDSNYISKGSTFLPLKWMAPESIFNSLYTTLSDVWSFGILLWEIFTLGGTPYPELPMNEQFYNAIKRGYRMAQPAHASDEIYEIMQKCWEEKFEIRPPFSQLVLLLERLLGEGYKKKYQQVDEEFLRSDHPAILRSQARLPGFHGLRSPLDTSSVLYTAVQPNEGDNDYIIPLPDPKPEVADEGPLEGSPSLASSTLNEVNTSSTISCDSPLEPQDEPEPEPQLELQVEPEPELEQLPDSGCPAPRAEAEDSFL

[4] = tested on: Choroid Neo-Vascularization; assay: Laser CNV mouse model for wet-AMD; type: in vivo; settings: injection into one eye, imaged for two weeks
Procedure: In vivo testing of Ex 3 in CNV (Choroid Neo-Vascularization)-laser mouse model was performed. Eyes of young mice were treated with laser to create choroid damage which results in the leakage of blood vessels (seen as light areas of FIG. 11). In each mouse, one eye was injected with a predetermined amount of Ex 3 while the other eye remained untreated to serve as ‘treatment(−)’ control. Mouse eyes were imaged intermittently for two weeks. The efficacy of the compound Ex 3 is indicated by its ability to prevent the leakage of the blood vessels (reduction or disappearance of the bright green areas).
FIG. 11 illustrates the efficacy of a compound of the present invention in Laser CNV mouse model for wet-AMD.

| Compound | inhibition of PDGFRWT-mediated signaling (PDGFR-WT [1]) | cell growth (OD reading) of humanized yeast expressing PDGFRβ (human PDGFRβWT) | activity against PDGFRβ-WT signaling (human PDGFRβ) | anti-angiogenesis efficacy ('blood vessel' growth) [2] | EC50 (PDGFR-WT [3]) [nM] | efficacy in preventing leakage of blood vessels [4] |
| --- | --- | --- | --- | --- | --- | --- |
| Cc1ccc(NC(=O)COc2ccc(-n3cnnn3)cc2)cc1C [Ex 1, N-(3,4-dimethylphenyl)-2-[4-(tetrazol-1-yl)phenoxy]acetamide] | efficiently inhibits the PDGFRWT-mediated signaling | allows cell-growth more efficiently compared to DMSO or Gleevec |  |  |  |  |
| Cc1ccc(NC(=O)COc2ccc(-c3cnc4ccccn34)cc2)cc1C [Ex 2, N-(3,4-dimethylphenyl)-2-[4-imidazo[1,2-a]pyridin-3-ylphenoxy]acetamide] |  |  | show activities against PDGFRβ-WT | better anti-angiogenesis efficacy then Ex 3 | 10 |  |
| Cc1ccc(NC(=O)COc2ccc(-c3cnc4ccccn34)cc2)cc1C(F)(F)F [Ex 3, N-[4-methyl-3-(trifluoromethyl)phenyl]-2-[4-imidazo[1,2-a]pyridin-3-ylphenoxy]acetamide] |  |  | show activities against PDGFRβ-WT |  | 10 | efficacy |
